# Patent publication US6458746B1, “Plant growth regulating formulations” (BASF Aktiengesellschaft, priority 1998, dated 2002)
# Columns and labels:
# Type in all cases: in vivo
# oats = assay: Greenhouse shoot length test, oats; conditions: 1% formulations in cyclohexanone: Emulan EL = 4:1; further: key: 0: no effect; +: low activity; ++: intermediate activity; +++: high activity
# Procedure: (§1) Unless otherwise noted, the growth regulating proerties of different compounds in different formulations were determined under greenhouse conditions as follows: […]
# (§2) Test plants were grown in plastic pots of approximately 12.5 cm in diameter in a substrate provided with sufficient nutrients and water. At an appropriate shoot length the plants were treated with aqueous sprays of the formulations. The growth-regulating action observed was confirmed at the end of the experiment by measuring the height of the plants. The results obtained were compared with the growth height of the untreated plants.
# barley = assay: Greenhouse shoot length test, barley; conditions: for Shoot length Barley [% of control]: 1% formulations in Atlas G 1086; for Shoot length [% of control] Barley: 2.5 g/ha ai; on Shoot length reduction [activity, relative to control] in barley: key: 0: no effect; +: low activity; ++: intermediate activity; +++: high activity
# Procedure: as §1, §2
# (§3) Assays with wheat, barley, oat, and rye plants were carried out as described above. The aqueous spray solutions were prepared as follows: […]
# [1] = test system: spring wheat (cv. “Ralle”); assay: Shoot height reduction in spring wheat, synergistic combinations
# Procedure: as §1, §2
# (§4) To show the synergistic effects of formulations in accordance with the instant invention together with further growth regulating agents, formulations in accordance with the invention were prepared and additional active ingredients added.
# Shoot height reduction in spring wheat (cv. “Ralle”) 21 days after treatment with combinations of standard compound S4 and compound VII
# Shoot height reduction in spring wheat (cv. “Ralle”) 13 days after treatment with combinations of standard compound S5 and compound VII
# [2] = test system: rice seedlings [cvs. “Koshihikari” (tall), “Tan-ginbozu” (dwarf), “Waito C” (dwarf)]; assay: Shoot growth of rice seedlings, combinations with GA3; conditions: for Shoot growth Waito C [% of Control] / Shoot growth Tan-ginbozu [% of Control] / Shoot growth Koshihikari [% of Control]: 7 days after treatment, 1 kg/ha ammonium sulphate added; for Shoot growth Waito C [% of Control]: 100% = 8.7 cm; for Shoot growth Tan-ginbozu [% of Control]: 100% = 9.4 cm; for Shoot growth Koshihikari [% of Control]: 100% = 17.4 cm
# Procedure: as §1, §2
# The synergizing effect of compound VII on shoot elongation in rice is shown in the results of Example 7.
# Enhanced shoot growth of rice seedlings [cvs. “Koshihikari” tall), “Tan-ginbozu” (dwarf), “Waito C” (dwarf)] 7 days after treatment with combinations of compound 6 with GA3^d
# wheat = assay: Greenhouse shoot length test, wheat; conditions: for Shoot length Wheat [% of control]: 1% formulations in Atlas G 1086; for Shoot length [% of control] Wheat: 2.5 g/ha ai
# Procedure: as §1, §2, §3
# rice = assay: Greenhouse shoot length test, rice; conditions: 1% formulations in cyclohexanone: Emulan EL = 4:1; further: key: 0: no effect; +: low activity; ++: intermediate activity; +++: high activity
# Procedure: as §1, §2
# [3] = test system: spring barley (cv. “Alexis”); assay: Shoot height reduction in spring barley, synergistic combinations; conditions: 20 days after treatment
# Procedure: as §1, §2, §4
# Shoot height reduction in spring barley (cv. “Alexis”) 20 days after treatment with combinations of standard compound S2 and compound VII
# Shoot height reduction in spring barley (cv. “Alexis”) 20 days after treatment with combinations of standard compound S4 and compound VII
# [4] = test system: small grains and rice (wheat, barley, oats, rye, rice); assay: Shoot length reduction in small grains and rice (statements across species); conditions: Examples 1 and 2
# Procedure: as §1, §2
# rye = assay: Greenhouse shoot length test, rye; conditions: 1% formulations in cyclohexanone: Emulan EL = 4:1; further: key: 0: no effect; +: low activity; ++: intermediate activity; +++: high activity
# Procedure: as §1, §2
# [5] = 1% formulations in cyclohexanone: Emulan EL = 4:1
substance,measurement,setting,value
"exo-16,17-Dihydro-GA5-13-acetate [Comp. VII]","Shoot length reduction [activity, relative to control] in oats",oats,+++
same,"Shoot length reduction [activity, relative to control] in barley",barley; [5],+++
same,Shoot length Barley [% of control],barley; 1.6 g/ha ai,97 % of control
same,Shoot length [% of control] Barley,barley; adjuvant Ethanol 500 g/ha,99 % of control
same,Shoot length [% of control] Barley,barley; adjuvant R 15 500 g/ha,75 % of control
same,Shoot length Barley [% of control],barley; 3.1 g/ha ai,78 % of control
same,Shoot length Barley [% of control],barley; 6.3 g/ha ai,61 % of control
same,Shoot length Barley [% of control],barley; 12.5 g/ha ai,57 % of control
same,% Shoot height reduction Actual,"[1]; 3 g/ha a.i., 21 days after treatment",8%
same,% Shoot height reduction Actual,"[1]; 6 g/ha a.i., 13 days after treatment",18%
same,% Shoot height reduction Actual,"[1]; 6 g/ha a.i., 21 days after treatment",21%
same,Shoot growth Waito C [% of Control],[2]; VII 12.5 g/ha ai,80 % of Control
same,Shoot growth Tan-ginbozu [% of Control],[2]; VII 12.5 g/ha ai,74 % of Control
same,Shoot growth Koshihikari [% of Control],[2]; VII 12.5 g/ha ai,75 % of Control
same,Shoot growth Waito C [% of Control],[2]; VII 25.0 g/ha ai,80 % of Control
same,Shoot growth Tan-ginbozu [% of Control],[2]; VII 25.0 g/ha ai,74 % of Control
same,Shoot growth Koshihikari [% of Control],[2]; VII 25.0 g/ha ai,75 % of Control
same,Shoot growth Waito C [% of Control],[2]; VII 50.0 g/ha ai,80 % of Control
same,Shoot growth Tan-ginbozu [% of Control],[2]; VII 50.0 g/ha ai,74 % of Control
same,Shoot growth Koshihikari [% of Control],[2]; VII 50.0 g/ha ai,75 % of Control
same,effect on shoot elongation in rice,[2]; applied alone,reduces shoot elongation
same,effect on the shoot growth-promoting effect of GA3,[2]; applied in combination with GA3,could clearly be raised
same,"Shoot length reduction [activity, relative to control] in wheat",wheat; [5],+++
same,Shoot length Wheat [% of control],wheat; 1.6 g/ha ai,90 % of control
same,Shoot length [% of control] Wheat,wheat; adjuvant Ethanol 500 g/ha,99 % of control
same,Shoot length [% of control] Wheat,wheat; adjuvant R 15 500 g/ha,73 % of control
same,Shoot length Wheat [% of control],wheat; 3.1 g/ha ai,73 % of control
same,Shoot length Wheat [% of control],wheat; 6.3 g/ha ai,70 % of control
same,Shoot length Wheat [% of control],wheat; 12.5 g/ha ai,64 % of control
same,"Shoot length reduction [activity, relative to control] in rice",rice,+++
same,% Shoot height reduction Actual,[3]; 3 g/ha a.i.,6%
same,% Shoot height reduction Actual,"[3]; 3 g/ha a.i., S4/VII table",6%
same,% Shoot height reduction Actual,[3]; 6 g/ha a.i.,18%
same,% Shoot height reduction Actual,"[3]; 6 g/ha a.i., S4/VII table",18%
same,shoot length reduction compared with compounds II to V,[4],superior to compounds II to V
same,"Shoot length reduction [activity, relative to control] in rye",rye,+++
